From paper PMC2674329 (The Journal of steroid biochemistry and molecular biology, 2008)
Read-outs that look alike come from different tables or passages of the source. One block for each molecule: values may come before it.

How the values were obtained:
Format in all cases: biochemical
[1] = target: T1, human liver cytosolic COMT (Homo sapiens, UniProt P21964)
T1 sequence (P21964 1-221 isoform P21964-2): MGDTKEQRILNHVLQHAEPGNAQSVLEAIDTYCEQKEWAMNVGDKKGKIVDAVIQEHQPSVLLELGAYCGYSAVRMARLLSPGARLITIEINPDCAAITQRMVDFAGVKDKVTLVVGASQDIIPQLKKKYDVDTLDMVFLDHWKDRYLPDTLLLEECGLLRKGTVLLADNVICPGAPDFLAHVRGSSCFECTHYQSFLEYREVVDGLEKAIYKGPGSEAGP

[2] = target: T2, human placental cytosolic COMT (Homo sapiens, UniProt P21964); settings: for Km: read-out: KM of the substrate for O-methylation
T2 sequence (P21964 1-221 isoform P21964-2): T1 sequence (P21964 1-221 isoform P21964-2)

[3] = target: T3, human liver and placental cytosolic COMT (Homo sapiens, UniProt P21964)
T3 sequence (P21964 1-221 isoform P21964-2): T1 sequence (P21964 1-221 isoform P21964-2)

[4] = range over liver and placental samples (summary)

SMILES: O=C(/C=C/c1ccc(O)c(O)c1)O[C@@H]1C[C@](O)(C(=O)O)C[C@@H](O)[C@H]1O [Chlorogenic acid, chlorogenic acid]
VMAX, 4-OH-E2 as substrate, in presence of inhibitor ([1]; HL1C + 1 μM inhibitor, no inhibitor: 6408): 2825 pmol/mg protein/min
VMAX, 4-OH-E2 as substrate, in presence of inhibitor ([1]; HL6C + 2 μM inhibitor, no inhibitor: 6310): 3292 pmol/mg protein/min
change of apparent KM value, O-methylation of 4-OH-E2 ([1]; inhibitor at 1 μM): slightly increased
decrease of apparent VMAX value, O-methylation of 4-OH-E2 ([1]; inhibitor at 1 μM): approximately 50%
mechanism of enzyme inhibition, O-methylation of 4-OH-E2 ([1]; inhibitor at 1 μM): primarily a noncompetitive mechanism
VMAX, 4-OH-E2 as substrate, in presence of inhibitor ([2]; HP18C + 0.25 μM inhibitor, no inhibitor: 1918): 1480 pmol/mg protein/min
VMAX, 2-OH-E2 as substrate, in presence of inhibitor ([2]; HP18C + 0.25 μM inhibitor, no inhibitor: 4815): 3960 pmol/mg protein/min
VMAX, 4-OH-E2 as substrate, in presence of inhibitor ([2]; HP18C + 0.5 μM inhibitor, no inhibitor: 1918): 1146 pmol/mg protein/min
VMAX, 2-OH-E2 as substrate, in presence of inhibitor ([2]; HP18C + 0.5 μM inhibitor, no inhibitor: 4815): 3648 pmol/mg protein/min
VMAX, 4-OH-E2 as substrate, in presence of inhibitor ([2]; HP20C + 0.5 μM inhibitor, no inhibitor: 759): 312 pmol/mg protein/min
VMAX, 2-OH-E2 as substrate, in presence of inhibitor ([2]; HP20C + 0.5 μM inhibitor, no inhibitor: 1650): 1311 pmol/mg protein/min
increase of KM value, 2-OH-E2 as a substrate ([2]; inhibitor at 0.25 μM): approximately 2 fold
increase of KM value, 4-OH-E2 as a substrate ([2]; inhibitor at 0.25 μM): approximately 1.2 fold
increase of KM value, 2-OH-E2 as a substrate ([2]; inhibitor at 0.5 μM): ~4 fold
increase of KM value, 4-OH-E2 as a substrate ([2]; inhibitor at 0.5 μM): approximately 2 fold
decrease of VMAX value, 2-OH-E2 as a substrate ([2]; inhibitor at 0.25 and 0.5 μM): approximately 20%
decrease of VMAX value, 4-OH-E2 as a substrate ([2]; inhibitor at 0.25 and 0.5 μM): approximately 50%
mechanism of enzyme inhibition, O-methylation of 2-OH-E2 and 4-OH-E2 ([2]; section on human placental cytosolic COMT (sentence prints human liver COMT)): mixed (competitive plus noncompetitive)
mechanism of inhibition, O-methylation of 2-OH-E2 and 4-OH-E2 ([3]; human liver and placental COMT): mixed (competitive plus noncompetitive)
higher inhibition potency for the O-methylation of 4-OH-E2 than for the O-methylation of 2-OH-E2 ([3]; human liver or placental cytosolic COMT): 1.5 to 7 fold
IC50 values for inhibiting the methylation of 2-OH-E2 [3, 4]: 0.8 to 1.4 µM
IC50 values for inhibiting the methylation of 4-OH-E2 [3, 4]: 0.2 to 0.8 µM

SMILES: C[C@]12CC[C@@H]3c4cc(O)c(O)cc4CC[C@H]3[C@@H]1CC[C@@H]2O [2-OH-E2, 2-hydroxyestradiol, reference compound]
VMAX of the substrate for O-methylation ([2]; HP17C (no inhibitor)): 2274 pmol/mg protein/min
VMAX of the substrate for O-methylation ([2]; HP18C (no inhibitor)): 4815 pmol/mg protein/min
VMAX of the substrate for O-methylation ([2]; HP20C (no inhibitor)): 1650 pmol/mg protein/min
Km ([2]; HP17C (no inhibitor)): 1.3 µM
Km ([2]; HP18C (no inhibitor)): 1 µM
Km ([2]; HP20C (no inhibitor)): 0.7 µM

SMILES: C[C@]12CC[C@@H]3c4ccc(O)c(O)c4CC[C@H]3[C@@H]1CC[C@@H]2O [4-OH-E2, 4-hydroxyestradiol, reference compound]
VMAX of the substrate for O-methylation ([1]; HL1C (no inhibitor), experiment with 1 μM chlorogenic acid): 6408 pmol/mg protein/min
VMAX of the substrate for O-methylation ([1]; HL1C (no inhibitor), experiment with 2 μM caffeic acid): 6401 pmol/mg protein/min
VMAX of the substrate for O-methylation ([1]; HL6C (no inhibitor)): 6310 pmol/mg protein/min
Km ([1]; read-out: KM of the substrate for O-methylation, HL6C (no inhibitor)): 7.1 µM
VMAX of the substrate for O-methylation ([2]; HP17C (no inhibitor)): 1827 pmol/mg protein/min
VMAX of the substrate for O-methylation ([2]; HP18C (no inhibitor)): 1918 pmol/mg protein/min
VMAX of the substrate for O-methylation ([2]; HP20C (no inhibitor)): 759 pmol/mg protein/min
Km ([2]; HP17C (no inhibitor)): 3.2 µM
Km ([2]; HP18C (no inhibitor)): 4.2 µM
Km ([2]; HP20C (no inhibitor)): 3.5 µM

VMAX, 4-OH-E2 as substrate, in presence of inhibitor ([2]; HP17C + 2 μM inhibitor, no inhibitor: 1827): 531 pmol/mg protein/min
VMAX, 4-OH-E2 as substrate, in presence of inhibitor ([2]; HP17C + 0.5 inhibitor (unit of concentration not given), no inhibitor: 1827): 1572 pmol/mg protein/min
VMAX, 2-OH-E2 as substrate, in presence of inhibitor ([2]; HP17C + 0.5 inhibitor (unit of concentration not given), no inhibitor: 2274): 2078 pmol/mg protein/min
SMILES: O=C(O)/C=C/c1ccc(O)c(O)c1 [Caffeic acid, caffeic acid]
